Laboratory results from US20030125387A1 (priority 2000, published 2003).
Values after ≈ are worked out from the molar mass of the structure shown. Like-named read-outs stand apart in the source and are kept apart here.

Columns and labels:
[1] = Aqueous solubility of fulvestrant, estimate from a water/solvent mixture; type: physicochemical; details: estimate from a water/solvent mixture solute
[2] = Solubility of fulvestrant in different solvents at 25° C. (Table 2); type: physicochemical
[3] = Effect of benzyl benzoate on fulvestrant solubility in castor oil at 25°C (Table 3); type: physicochemical
[4] = Solubility of fulvestrant in oil based formulations with and without alcohols (Table 4); type: physicochemical; details: 25 °C, oil or lipid
[5] = test system: human breast cancer cells; details: human breast cancer cells in vitro; cited from earlier work
[6] = test system: uterotrophic action of oestradiol; details: rats; cited from earlier work
[7] = test system: uterotrophic action of oestradiol; details: mice; cited from earlier work
[8] = test system: uterotrophic action of oestradiol; details: monkeys; cited from earlier work
uterus = details: intact adult rats, cited from earlier work
[9] = in vivo; cited from earlier work
hypothalamic ER = details: in vivo; cited from earlier work
[10] = Studies using 14C labelled benzyl alcohol: dissipation from injection site and removal from body; type: in vivo

For C[C@]12CC[C@@H]3c4ccc(O)cc4C[C@@H](CCCCCCCCC[S+]([O-])CCCC(F)(F)C(F)(F)F)[C@H]3[C@@H]1CC[C@@H]2O (stereo partly drawn) [fulvestrant, 7α-[9-(4,4,5,5,5-Pentafluoropentylsulphinyl)nonyl]oestra-1,3-5(10)-triene-3,17β-diol], the aqueous solubility [1] was “around 10 ngml^−1”, the solubility ([2]; solvent Arachis oil, 25° C.) was 0.45 mgml^−1 and the solubility ([2]; solvent Benzyl Alcohol, 25° C.) was over 200 mgml^−1. The solubility ([2]; solvent Benzyl benzoate, 25° C.) was 6.15 mgml^−1, the solubility ([2]; solvent Castor oil, 25° C.) was 20 mgml^−1 and the solubility ([2]; solvent Ethanol, 25° C.) was over 200 mgml^−1. It also gave a solubility ([2]; solvent Ethyl oleate, 25° C.) of 1.25 mgml^−1, a solubility ([2]; solvent Isopropyl myristate, 25° C.) of 0.80 mgml^−1 and a solubility ([2]; solvent Miglyol 810, 25° C.) of 3.06 mgml^−1. For the same compound, the solubility ([2]; solvent Miglyol 812, 25° C.) was 2.72 mgml^−1, the solubility ([2]; solvent Sesame oil, 25° C.) was 0.58 mgml^−1 and the solubility ([2]; solvent Span 85 (surfactant), 25° C.) was 3.79 mgml^−1. For the same compound, the solubility ([2]; solvent Water, 25° C., read-out: SOLUBILITY) was 0.001 mg/mL (≈ 0.00165 mM), the “Fulvestrant Solubility” value ([3]; % w/v: ethanol (96%) 5, benzyl alcohol 5, benzyl benzoate 15, castor oil to 100) was 36 mgml^−1 and the “Fulvestrant Solubility” value ([3]; % w/v: ethanol (96%) 5, benzyl alcohol 5, no benzyl benzoate, castor oil to 100) was 27 mgml^−1. For the same compound, the “Fulvestrant Solubility” value ([3]; % w/v: ethanol (96%) 10, benzyl alcohol 5, benzyl benzoate 15, castor oil to 100) was 54 mgml^−1, the “Fulvestrant Solubility” value ([3]; % w/v: ethanol (96%) 10, benzyl alcohol 5, no benzyl benzoate, castor oil to 100) was 46 mgml^−1 and the “Fulvestrant Solubility” value ([3]; % w/v: ethanol (96%) 10, benzyl alcohol 10, benzyl benzoate 15, castor oil to 100) was 65 mgml^−1. For the same compound, the “Fulvestrant Solubility” value ([3]; % w/v: ethanol (96%) 10, benzyl alcohol 10, no benzyl benzoate, castor oil to 100) was 45 mgml^−1, the “Fulvestrant Solubility” value ([3]; % w/v: ethanol (96%) 15, benzyl alcohol 15, benzyl benzoate 15, castor oil to 100) was 102 mgml^−1 and the “Fulvestrant Solubility” value ([3]; % w/v: ethanol (96%) 15, benzyl alcohol 15, no benzyl benzoate, castor oil to 100) was 76 mgml^−1. The solubility [4] was 70.1 mg/mL (≈ 116 mM), the solubility ([4]; Fulvestrant Solubility, Vehicle minus alcohols, Sesame seed oil based, alcohols removed) was 0.7 mg/mL (≈ 1.15 mM) and the solubility ([4]; Fulvestrant Solubility, Vehicle minus alcohols, Sesame seed/Castor oil (1:1) based, alcohols removed, 25° C.) was 4.4 mg/mL (≈ 7.25 mM). For the same compound, the solubility ([4]; Arachis oil based oil formulation, complete vehicle, Fulvestrant Solubility, Arachis oil based, ethanol [96%] (10%), benzyl alcohol (10%), benzyl benzoate (15%), oil to volume) was 40.2 mg/mL (≈ 66.3 mM), the solubility ([4]; Arachis oil based oil formulation, vehicle minus alcohols, Fulvestrant Solubility, Arachis oil based, alcohols removed) was under 0.2 mg/mL and the solubility ([4]; Castor oil based oil formulation, complete vehicle, Fulvestrant Solubility, Castor oil based, ethanol [96%] (10%), benzyl alcohol (10%), benzyl benzoate (15%), oil to volume) was 81.2 mg/mL (≈ 134 mM). It also gave a solubility ([4]; Castor oil based oil formulation, vehicle minus alcohols, Fulvestrant Solubility, Castor oil based, alcohols removed) of 12.6 mg/mL (≈ 20.8 mM), a solubility ([4]; Miglyol 812-N based oil formulation, complete vehicle, Fulvestrant Solubility, Miglyol 812-N based, ethanol [96%] (10%), benzyl alcohol (10%), benzyl benzoate (15%), oil to volume) of 86.8 mg/mL (≈ 143 mM) and a solubility ([4]; Miglyol 812-N based oil formulation, vehicle minus alcohols, Fulvestrant Solubility, Miglyol 812-N based, alcohols removed) of 1.7 mg/mL (≈ 2.8 mM). The solubility ([4]; Sesame seed oil based oil formulation, complete vehicle, Fulvestrant Solubility, Sesame seed oil based, ethanol [96%] (10%), benzyl alcohol (10%), benzyl benzoate (15%), oil to volume) was 45.7 mg/mL (≈ 75.3 mM), the “block of growth stimulatory action of oestradiol” value [5] was “completely blocks” and the “potency and effectiveness compared with tamoxifen” value [5] was “more potent and more effective than tamoxifen”. The “block of uterotrophic action of oestradiol” value [6] was “blocks completely”, the “block of uterotrophic action of oestradiol” value [7] was “blocks completely” and the “block of uterotrophic action of oestradiol” value [8] was “blocks completely”. For the same compound, the “effect on bone density and gonadotrophin secretion” value (uterus; at the dose achieving maximum regression of the uterus) was “does not adversely affect bone density or lead to increased gonadotrophin secretion”, the “regression of the uterus” value (uterus) was “maximum regression of the uterus” and the “crossing of the blood-brain barrier” value [9] was “does not cross the blood-brain barrier”. The “block of hypothalamic ER” value (hypothalamic ER) was “does not block”.
For OCc1ccccc1 [benzyl alcohol], the “dissipation from the injection site” value [10] was “dissipates rapidly” and the “time to removal from the body after administration” value [10] was at most 24 h.
